# Key:
# [1] = system: lung tissue of a mouse animal model irradiated with 90 Gy; assay: Inhibition test of GSK3 inhibitor on tissue damage caused by radiation (H&E staining); type: in vivo; settings: 30 mg/kg intraperitoneally one hour before 90 Gy chest irradiation, two weeks after irradiation, compared to the non-treatment group (IR)
# Procedure: The tissue of a mouse was fixed with 10% neutral formalin for one day, and a paraffin section was made. In order to remove the paraffin around the tissue, the tissue was allowed to react with a xylene solution and 95%, 90%, and 70% ethanol solutions in sequential order for 5 minutes each, and then immersed in a hematoxylin solution for 1 minute to stain the nuclei and then washed under running water for 10 minutes. Thereafter, the cytoplasm was stained by immersing the tissue in an eosin solution for 30 seconds. Thereafter, the tissue was immersed in 50%, 70%, 90%, and 95% ethanol solutions, and a xylene solution in sequential order, followed by dropping one drop of a mounting solution. Then, the tissue was covered with a cover slide and observed under a microscope (Carl Zeiss Vision). The lung tissue of a mouse animal model, in which the chest of the mouse was irradiated in a size of 3 mm with an intensity of 90 Gy, was fixed with 10% formalin, and a paraffin section was made. Thereafter, tissue inflammatory response and fibrosis were identified by using a hematoxylin and eosin staining method. […] Two weeks after the irradiation, the inflammatory response and fibrosis of the tissue damage site were identified by using a hamatoxylin and eosin staining method.
# [2] = system: vascular wall in the lung tissue of a mouse animal model irradiated with 90 Gy; assay: Inhibition test of GSK3 inhibitor on in vivo vascular damage caused by radiation (vascular wall thickness, H&E staining); settings: 30 mg/kg intraperitoneally one hour before 90 Gy chest irradiation, two weeks after irradiation, compared to the non-treatment group (IR)
# Procedure: (§1) The tissue of a mouse was fixed with 10% neutral formalin for one day, and a paraffin section was made. In order to remove the paraffin around the tissue, the tissue was allowed to react with a xylene solution and 95%, 90%, and 70% ethanol solutions in sequential order for 5 minutes each, and then immersed in a hematoxylin solution for 1 minute to stain the nuclei and then washed under running water for 10 minutes. Thereafter, the cytoplasm was stained by immersing the tissue in an eosin solution for 30 seconds. Thereafter, the tissue was immersed in 50%, 70%, 90%, and 95% ethanol solutions, and a xylene solution in sequential order, followed by dropping one drop of a mounting solution. Then, the tissue was covered with a cover slide and observed under a microscope (Carl Zeiss Vision).
# The lung tissue of a mouse animal model, in which the chest of the mouse was irradiated in a size of 3 mm with an intensity of 90 Gy, was fixed with 10% formalin, and a paraffin section was made. Thereafter, the tissue was stained with hematoxylin and eosin. Upon observing the tissue with this staining method, the cell nucleus is observed in blue and the cytoplasm in pink. One hour before irradiating the mouse animal model, 30 mg/kg of […] or CHIR-98014 was administered intraperitoneally. […]
# [3] = system: pulmonary vascular endothelial cells of irradiated C57BL/6 mouse lung; assay: Pulmonary fibrosis inhibition test in experimental animal model (collagen, trichrome staining); type: in vivo; settings: 30 mg/kg intraperitoneally one hour before 90 Gy lung irradiation, compared to the irradiation group (IR)
# Procedure: The tissue of a mouse was fixed with 10% neutral formalin for one day, and a paraffin section was made. In order to remove paraffin around the tissue, the tissue was allowed to react with a xylene solution and 95%, 90%, and 70% ethanol solutions in sequential order for 5 minutes each. For the antigen activation of the tissue, the tissue was immersed in a 0.1 M citric acid solution (pH 6.0) and then boiled for 20 minutes. Subsequently, the tissue was allowed to react with a Bouin's solution for 1 minute, Weigert's hematoxylin for 10 minutes, phoshotunstic/phosphomolydic acid for 10 minutes, aniline blue for 5 minutes, and 1% acetic acid for 1 minute in sequential order. Thereafter, a dehydration process was performed, and then the tissue was covered with a cover glass and observed under a microscope (Carl Zeiss Vision).
# In order to observe whether a phenomenon of pulmonary fibrosis of vascular endothelial cells is shown as the symptom of pulmonary fibrosis occurred after radiotherapy, the site of the lung of a C57BL/6 mouse was topically irradiated with an intensity of 90 Gy. After excising the lung from the mouse, the cross-section of the aorta of the lung tissue was stained by a trichrome staining method in order to identify collagen which is a protein shown upon fibrosis of the pulmonary vascular endothelial cells.
# γH2AX = assay: Inhibition test of GSK3 inhibitor on DNA damage caused by radiation (γH2AX immunostaining); type: in vivo, mouse; settings: 30 mg/kg one hour prior to 90 Gy lung irradiation, compared to the non-treatment group (IR)
# Procedure: The tissue of a mouse was fixed with 10% neutral formalin for one day, and a paraffin section was made. In order to remove paraffin around the tissue, the tissue was immersed in a xylene solution and 100%, 95%, 90%, and 70% ethanol solutions in sequential order. For the antigen activation of the tissue, the tissue was immersed in a 0.1 M citric acid solution (pH 6.0) and boiled for 30 minutes, and then reacted with 3% hydrogen peroxide for 15 minutes. The tissue was allowed to react with γH2AX (abcam), which was diluted in 1:200 ratio in a PBS solution (including phosphate based saline buffer and 0.1% triton x-100), at 4° C. for 16 hours. After washing the tissue with PBS, a secondary antibody conjugated with biotin was diluted in 1:200 ratio and reacted with the tissue at room temperature for 30 minutes. After reacting the tissue with ABC (Avidin biotin complex) at room temperature for 30 minutes and color-developing 3,3′-DAB (3,3′-diaminobenzidine), the tissue was counterstained with hematoxylin. Subsequently, the tissue was immersed in 50%, 70%, 90%, 95%, and 100% ethanol solutions and a xylene solution in sequential order, followed by dropping one drop of a mounting solution. Then, the tissue was covered with a cover slide and observed under a microscope (Carl Zeiss Vision). […]
# [4] = system: lung tissue of bleomycin-injected mouse; assay: Inhibition test of GSK3 inhibitor on tissue damage caused by bleomycin (bleomycin-induced pulmonary fibrosis model); type: in vivo; settings: 30 mg/kg intraperitoneally one hour before 1.25 U/kg bleomycin into the airway; three weeks after injection; H&E and trichrome staining; compared to the non-treatment group
# Procedure: as §1
# The tissue of a mouse was fixed with 10% neutral formalin for one day, and a paraffin section was made. In order to remove paraffin around the tissue, the tissue was allowed to react with a xylene solution and 95%, 90%, and 70% ethanol solutions in sequential order for 5 minutes each. For the antigen activation of the tissue, the tissue was immersed in a 0.1 M citric acid solution (pH 6.0) and then boiled for 20 minutes. […]
Structure (SMILES),infiltration of the inflammatory cells and the fibrotic matrix around blood vessels [1],thickness of the vascular wall [2],blue sites of collagen (protein associated with pulmonary fibrosis) in inner wall of the aorta of the lung [3],expression of γH2AX according to the DNA damage (γH2AX),"pathological characteristics (infiltration of inflammatory cells, deposition of collagen, fibrous nodules, interstitial thickening) [4]"
"Nc1nc(NCCNc2ncc(-c3ncc[nH]3)c(-c3ccc(Cl)cc3Cl)n2)ccc1[N+](=O)[O-] [CHIR-98014, N-6-[2-[[4-(2,4-dichlorophenyl)-5-(1H-imidazol-2-yl)-2-pyrimidinyl]amino]ethyl]-3-nitro-2,6-pyridinediamine]",remarkably reduced,remarkably reduced,remarkably reduced,remarkably reduced,remarkably inhibited
"Cc1c[nH]c(-c2cnc(NCCNc3ccc(C#N)cn3)nc2-c2ccc(Cl)cc2Cl)n1 [CHIR-99021, 6-[[2-[[4-(2,4-dichlorophenyl)-5-(5-methyl-1H-imidazol-2-yl)-2-pyrimidinyl]amino]ethyl]amino]-3-pyridinecarbonitrile]",remarkably reduced,remarkably reduced,remarkably reduced,remarkably reduced,remarkably inhibited
